This is an account of results in patent US9150519B2, “6-amino-pyrimidine-4-carboxamide derivatives and related compounds which bind to the sphingosine 1-phosphate (S1P) receptor for the treatment of multiple sclerosis” (MERCK SERONO SA, priority 2007, dated 2015).

The target of one assay is S1P3 (Homo sapiens (Human), UniProt Q99500). Briefly: 35S-GTPγS binding assay, S1P3 membranes. The assay is classed as biochemical. The note with it: membranes from CHO cells expressing S1P3; read-out: S1P3 GTPyS EC50. On the procedure: (§1) Membranes were prepared from CHO cells expressing S1P1 or S1P3 for use in ligand and […] binding studies. Cells were suspended in 50 mM TRIS, pH 7.4, 2 mM EDTA, 250 mM Sucrose (buffer A) and 1× Complete protease inhibitor cocktail (Roche), and disrupted at 4° C. by nitrogen decompression using a cell disruption bomb (Parr Instrument). Following centrifugation at 1000 RPM for 10 min at 4° C., the supernatant was suspended in buffer A and centrifuged again at 19000 RPM for 60 min at 4° C. The pellet was then suspended in 10 mM HEPES, pH 7.4, 1 mM EDTA, 250 mM Sucrose (Buffer B), and 1× Complete EDTA-free protease inhibitor cocktail and homogenized using a potter. Membranes were flash frozen in liquid nitrogen and stored at −80° C. [33P]sphingosine 1-phosphate (3000 Ci/mmol; American Radiolabeled Chemicals, Inc.) was added to test compounds in DMSO. Membranes and WGA SPA beads (GE Healthcare) were added to give a final volume of 100 μl in 96-well plates with assay concentrations of 25 μM or 10 μM [33P]sphingosine 1-phosphate (respectively for S1P1 or S1P3), 50 mM HEPES, pH 7.5, 5 mM MgCl2, 100 mM NaCl, 0.4% fatty acid-free BSA, 1-5 μg/well of proteins and 100 μg/well of WGA SPA beads. Binding was performed for 60 min at room temperature on a shaker and bound radioactivity was measured on a PerkinElmer 1450 MicroBeta counter. Specific binding was calculated by subtracting remaining radioactivity in the presence of 1000-fold excess of unlabeled S1P. Binding data were analyzed using the GraphPad Prism program.
Chain of S1P3 (Q99500 whole entry, species assumed): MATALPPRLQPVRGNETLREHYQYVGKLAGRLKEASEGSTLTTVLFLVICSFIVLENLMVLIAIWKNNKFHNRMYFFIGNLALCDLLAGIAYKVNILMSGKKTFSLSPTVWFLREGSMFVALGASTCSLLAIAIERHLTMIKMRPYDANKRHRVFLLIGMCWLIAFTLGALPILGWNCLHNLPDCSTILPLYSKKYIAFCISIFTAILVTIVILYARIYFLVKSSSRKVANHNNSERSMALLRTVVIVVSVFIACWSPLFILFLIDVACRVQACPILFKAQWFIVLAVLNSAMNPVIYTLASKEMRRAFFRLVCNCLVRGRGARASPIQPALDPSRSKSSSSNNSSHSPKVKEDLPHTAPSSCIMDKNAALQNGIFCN
Measurements of ^35S-GTPγS Binding: Membranes (1 to 10 μg protein) prepared as described above, were incubated in 96-well Scintiplates (PerkinElmer) with test compounds diluted in DMSO, in 180 μl of 20 mM HEPES, pH 7.4, 10 mM MgCl2, 2 μg/well Saponin, 0.2% fatty acid free BSA (Assay buffer), 140 mM NaCl and 1.7 μM GDP. The assay was initiated with the addition of 20 μl of 1.5 nM [35S]-GTPγS (1100 Ci/mmol; GE Healthcare) in assay buffer. After 60 min incubation at 30° C. on a shaker, plates were centrifuged for 10 min at 2000 RPM. Supernatant was discarded and membrane bound radioactivity was measured on a PerkinElmer 1450 MicroBeta counter. Triplicate samples were averaged and expressed as % response relative to SIP activation in absence of compound (n=2).
A general note: GTPγS resists hydrolysis and so accumulates on activated G proteins.

A further assay addresses S1P1 (Homo sapiens (Human), UniProt P21453). Briefly: 35S-GTPγS binding assay, S1P1 membranes. The assay is classed as biochemical. Conditions: membranes from CHO cells expressing S1P1; read-out: S1P1 GTPyS EC50. The procedure:
as §1, with “Membranes and WGA SPA beads (GE Healthcare) were added to give a final volume of 100 μl in 96-well plates with assay concentrations of 25 μM or 10 μM [33P]sphingosine 1-phosphate (respectively for S1P1 or S1P3), 50 mM HEPES, pH 7.5, 5 mM MgCl2, 100 mM NaCl, 0.4% fatty acid-free BSA, 1-5 μg/well of proteins and 100 μg/well of WGA SPA beads.” left out
The assay was initiated with the addition of 20 μl of 1.5 nM [35S]-GTPγS (1100 Ci/mmol; GE Healthcare) in assay buffer. After 60 min incubation at 30° C. on a shaker, plates were centrifuged for 10 min at 2000 RPM. Supernatant was discarded and membrane bound radioactivity was measured on a PerkinElmer 1450 MicroBeta counter. Triplicate samples were averaged and expressed as % response relative to SIP activation in absence of compound (n=2).

Chain of S1P1 (P21453 whole entry, species assumed): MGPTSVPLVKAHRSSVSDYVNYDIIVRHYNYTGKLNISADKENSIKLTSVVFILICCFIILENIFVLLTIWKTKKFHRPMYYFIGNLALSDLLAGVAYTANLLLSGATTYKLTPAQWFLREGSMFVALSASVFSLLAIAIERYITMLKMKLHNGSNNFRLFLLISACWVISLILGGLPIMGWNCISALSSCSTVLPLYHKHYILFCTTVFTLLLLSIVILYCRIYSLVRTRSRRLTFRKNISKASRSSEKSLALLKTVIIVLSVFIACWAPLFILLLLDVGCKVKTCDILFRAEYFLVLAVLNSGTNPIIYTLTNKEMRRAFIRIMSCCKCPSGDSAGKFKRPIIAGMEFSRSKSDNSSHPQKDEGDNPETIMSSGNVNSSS

For the molecule `CCCN(CC1CC1)c1cc(C(=O)Nc2ccc(S(=O)(=O)NCCC(=O)O)cc2C)ncn1` [Example 1-99], the EC50 (in general, the midpoint of the concentration-response curve) at S1P3 stood at 5650 nM.
Turning to `Cc1cc(S(N)(=O)=O)ccc1NC(=O)c1cc(NC2CCCCC2)ncn1` [Example 1-18], the figures for the EC50 on S1P1 and on S1P3 were 440 nM and > 30000 nM, respectively.
Consider `CC(C)CN(c1cc(C(=O)Nc2ccc3[nH]ncc3c2)ncn1)C1CCCC1` [Example 1-69], for which, on S1P3, the concentration for a half-maximal effect (EC50) was 666 nM.
In the case of `O=C(Nc1ccnc2ccccc12)c1cc(NC2CCCCC2)ncn1` [Example 1-16], the EC50 at S1P1 is 1070 nM; at S1P3, 5230 nM.
For `CCCN(c1cc(C(=O)Nc2ccc(S(N)(=O)=O)cc2C)ncn1)C1CCCCC1` [Example 1-54] the same measures were 2.9 nM and 1990 nM.
In the same order, the values of `CCCN(CCC)c1cc(C(=O)Nc2ccc(O)cc2)ncn1` [Example 1-22] are 370 nM and 2320 nM.
For the molecule `CCCN(CC1CC1)c1cc(C(=O)Nc2ccc(CNCC(=O)O)cc2C)ncn1` [Example 1-100], the EC50 on S1P3 was > 20000 nM.
Still for that read-out and setting: the same measure for `Cc1cc(S(=O)(=O)NCCC(=O)O)ccc1NC(=O)c1cc(N(CC2CC2)C2CCCCC2)ncn1` [Example 1-62]: 62 nM.
Regarding `COCCNS(=O)(=O)c1ccc(NC(=O)c2cc(N(CC3CC3)C3CCCCC3)ncn2)c(C)c1` [Example 1-107], the EC50 at S1P1 is 19 nM; at S1P3, 3300 nM.
For `Cc1cc2[nH]ncc2cc1NC(=O)c1cc(N(C)C2CCCCC2)ncn1` [Example 1-39] the same measures were 211 nM and 2330 nM.
For `O=C(Nc1ccc(O)cc1)c1cc(OC2CCCCC2)ncn1` [Example 1-26] the same measures were 240 nM and > 30000 nM.
With `O=C(Nc1ccc2[nH]ncc2c1)c1cc(NC2CCCCC2)ncn1` [Example 1-28], the EC50 at S1P3 was > 30000 nM.
Consider `O=C(Nc1ccc2[nH]ncc2c1)c1cc(N(CC2CC2)C2CCCCC2)ncn1` [Example 1-44], for which the EC50 at S1P1 is 9 nM; on S1P3, > 20000 nM.
`CCCN(CC1CC1)c1cc(C(=O)Nc2ccc(CO)cc2C)ncn1` [Example 1-85]: the concentration giving a half-maximal response (EC50) at S1P3 was > 20000 nM.
Consider `CN(c1cc(C(=O)Nc2ccc(S(=O)(=O)NCC(O)CO)cc2)ncn1)C1CCCCC1` (centres unmarked) [Example 1-40], for which the half-maximal effective concentration (EC50) at S1P1 was 1520 nM; at S1P3 it was > 20000 nM.
For `CCN(c1cc(C(=O)Nc2ccc(O)cc2C)ncn1)C1CCCCC1` [Example 1-25] the same measures were 400 nM and > 30000 nM.
In the same order, the values of `Cc1cc(S(N)(=O)=O)ccc1NC(=O)c1cc(N(C)C2CCCCC2)ncn1` [Example 1-29] are 65 nM and > 30000 nM.
In the same order, the values of `Cc1cc(S(N)(=O)=O)ccc1NC(=O)c1cc(N(CC(C)C)C2CCCC2)ncn1` [Example 1-58] are 39 nM and > 20000 nM.
As for `Cc1cc(O)ccc1NC(=O)c1cc(OC2CCCCC2)ncn1` [Example 1-34], the EC50 at S1P1 is 132 nM; on S1P3, > 20000 nM.
For the molecule `Cc1cc(O)ccc1NC(=O)c1cc(NC2CCCCC2)ncn1` [Example 1-1], the EC50 on S1P3 was > 30000 nM.
Still for that read-out and setting: the same measure for `O=C(Nc1ccc(O)cc1Cl)c1cc(NC2CCCCC2)ncn1` [Example 1-8]: > 30000 nM.
Still for that read-out and setting: the same measure for `CCCN(CC1CC1)c1cc(C(=O)Nc2ccc(S(N)(=O)=O)cc2C)ncn1` [Example 1-56]: > 20000 nM.
With `COC(=O)CCNCc1ccc(NC(=O)c2cc(N(CC3CC3)C3CCCCC3)ncn2)cc1` [Example 1-76], the EC50 on S1P1 was found to be 48 nM; at S1P3 it was 777 nM.
As for `CCCN(CC1CC1)c1cc(C(=O)Nc2cccc3[nH]ccc23)ncn1` [Example 1-113], the concentration for a half-maximal effect (EC50) at S1P3 was > 20000 nM.
The same measure, in the same setting: the same measure for `O=C(Nc1ccc(CCO)cc1)c1cc(NC2CCCCC2)ncn1` [Example 1-52]: > 30000 nM.
As for `CN(c1cc(C(=O)Nc2ccc3c(c2)CC(=O)N3)ncn1)C1CCCCC1` [Example 1-41], the EC50 at S1P1 came to 1780 nM; on S1P3, 32000 nM.
On to `O=C(Nc1ccc(O)cc1F)c1cc(NC2CCCCC2)ncn1` [Example 1-7], for which the EC50 at S1P3 was > 30000 nM.
Still for that read-out and setting: the same measure for `O=C(Nc1ccc(O)cc1)c1cc(NC2CCCCC2)ncn1` [Example 1-53]: > 30000 nM; for `O=C(Nc1ccc(CN2CC(C(=O)O)C2)cc1)c1cc(N(CC2CC2)C2CCCCC2)ncn1` [Example 1-84]: 236 nM; for `O=C(Nc1ccc(O)c2ccccc12)c1cc(NC2CCCCC2)ncn1` [Example 1-5]: > 30000 nM.
On the same count and under the same terms, the same measure for `CN(c1cc(C(=O)Nc2ccc(O)cc2)ncn1)C1CCCCC1` [Example 1-19]: > 30000 nM.
Regarding `CN(CC(=O)OC(C)(C)C)Cc1ccc(NC(=O)c2cc(N(CC3CC3)C3CCCCC3)ncn2)cc1` [Example 1-75], the EC50 at S1P1 came out at 2690 nM.
In the case of `CCCN(CC1CC1)c1cc(C(=O)Nc2ccc3c(cnn3CC(=O)N(C)C)c2)ncn1` [Example 1-115], the EC50 at S1P1 turned out to be 2840 nM.
The same measure, in the same setting: in the case of `CCC(NCc1ccc(NC(=O)c2cc(N(CC3CC3)C3CCCCC3)ncn2)cc1)C(=O)OC` (centres unmarked) [Example 1-74] it was 2160 nM.
On to `Cc1cc(S(=O)(=O)NCCCC(=O)O)ccc1NC(=O)c1cc(N(CC2CC2)C2CCCCC2)ncn1` [Example 1-63], for which the EC50 on S1P3 came out at 1310 nM.
Turning to `NCc1ccc(NC(=O)c2cc(N(CC3CC3)C3CCCCC3)ncn2)cc1` [Example 1-48], the EC50 at S1P1 stood at 39 nM.
In the case of `CCCN(CC1CC1)c1cc(C(=O)Nc2ccc(Cn3cncn3)cc2)ncn1` [Example 1-145], the EC50 on S1P1 is 55 nM.
Same read-out and setting: in the case of `CCCN(CC1CC1)c1cc(C(=O)Nc2ccc(S(=O)(=O)CCCC(=O)O)cc2)ncn1` [Example 1-124] it was 1500 nM.
On the same count and under the same terms, the same measure for `COCCNS(=O)(=O)c1ccc(NC(=O)c2cc(N(C)C3CCCCC3)ncn2)cc1` [Example 1-42]: 2280 nM; for `CCCN(CC1CC1)c1cc(C(=O)Nc2ccc(N3CCOCC3)c(F)c2)ncn1` [Example 1-151]: 604 nM.
`NS(=O)(=O)c1ccc(NC(=O)c2cc(NC3CCCCC3)ncn2)cc1` [Example 1-17]: the EC50 on S1P1 worked out at 1990 nM.
Consider `CS(=O)(=O)Nc1ccc(NC(=O)c2cc(NC3CCCCC3)ncn2)cc1` [Example 1-13], for which the EC50 on S1P3 was > 30000 nM.
In the case of `Cc1cc(O)ccc1NC(=O)c1cc(N(C)C2CCC(C)CC2)ncn1` (centres unmarked) [Example 1-32], the EC50 on S1P1 stood at 610 nM.
Still for that read-out and setting: in the case of `CCCN(CC1CC1)c1cc(C(=O)Nc2ccc3c(c2)CCNC3)ncn1` [Example 1-91] it was 145 nM; in that of `CN(c1cc(C(=O)Nc2ccc(S(N)(=O)=O)cc2)ncn1)C1CCCCC1` [Example 1-30], 674 nM; in that of `CCCN(CC1CC1)c1cc(C(=O)Nc2ccc3[nH]nc(CCC(=O)O)c3c2)ncn1` [Example 1-129], 1710 nM.
Regarding `COCCN(CCOC)c1cc(C(=O)Nc2ccc3[nH]ncc3c2)ncn1` [Example 1-70], the concentration giving a half-maximal response (EC50) at S1P1 turned out to be 1110 nM.
Same read-out and setting: in the case of `CCCN(CC1CC1)c1cc(C(=O)Nc2ccc(CC3COC(=O)N3)cc2)ncn1` (centres unmarked) [Example 1-150] it was 268 nM.
Still for that read-out and setting: in the case of `CC(C)(C)OC(=O)CNCc1ccc(NC(=O)c2cc(N(CC3CC3)C3CCCCC3)ncn2)cc1` [Example 1-73] it was 724 nM.
As to `CCCN(CC1CC1)c1cc(C(=O)Nc2ccc3c(cnn3CC(N)=O)c2)ncn1` [Example 1-117], at S1P1, the EC50 worked out at 1070 nM.
